# Laboratory results: patent US20060073188A1, “Fast-dissolving isotropic expanded microporous composition or structure for pharmaceutical, veterinary, dietetic, food or cosmetic use and method for obtaining same” (PIERRE FABRE MEDICAMENT, priority 1999, published 2006)
# Assay: physchem
row,solubility [µg/mL],SMILES
1,< 100,O=c1[nH]c2ccccc2n1CCCN1CCC(n2c(=O)[nH]c3cc(Cl)ccc32)CC1 [domperidone]
2,< 100,CN1C(C(=O)Nc2ccccn2)=C(O)c2ccccc2S1(=O)=O [piroxicam]
